Experimental data taken from patent publication US20150246093A1, “ORAL FORMULATIONS OF ANGIOTENSIN” (TARIX PHARMACEUTICALS LTD., priority 2012, published 2015).
Where “and” joins values, the source holds several entries; their conditions need not be identical. Equal entries are not always repeated. Where two headings read alike, the source gives them in different places.

Assay: Pharmacokinetics after intra-duodenal injection (ID) in anesthetized rats, model mimicking enteric-coated oral dosage form, plasma LC-MS
Type: in vivo, rat
Conditions: for Total mean A(1-7) exposure over the observation period: ID; for level at 0 h / level at 10 min / level at 20 min / level at 40 min / level at 1 h / level at 1.5 h / level at 5 min: read-out: Angiotensin (1-7) concentration
Procedure: This model mimics the release and absorption expected from an orally delivered enteric coated solid dosage form such as capsule or tablet.
After extraction, the samples were then transferred to ice-cold tubes containing a protease inhibitor cocktail. The samples were kept on ice until they were centrifuged at 4° C. to obtain plasma. The plasma supernatants were then frozen −70° C. until analysis using an LC-MS assay.
The oral delivery of an angiotensin (1-7) peptide (e.g., TXA127) was then evaluated in a rat model that mimics the release of the peptide into the intestine by enteric-coated capsule. Briefly, the duodenums of anesthetized rats were surgically exposed, and an angiotensin (1-7) peptide was delivered through a 27 gauge needle into the duodenum. A baseline was obtained by ID administration of an angiotensin (1-7) in PBS. Samples of blood was removed from the carotid artery before and 5, 10, 20, 40, 60 and 90 minutes after peptide administration. Subsequently, an angiotensin (1-7) peptide was administered ID in 400 mM citrate buffer (pH 3.5) and lauroyl-L-carnitine (LLC) (10 mg/ml), a formulation that mimics the contents of the enteric-coated capsules. In order to maximize the stability of TXA127 in rat circulation, captopril (e.g., 0.5 mg/ml or 5 mg/ml) may be added to the formulations. Blood samples were taken at the same time points as the baseline study and handled as described above for analysis.

[1] = ID 0.3 ml A [10 mg/ml in PBS], individual rats
[2] = ID 0.3 ml B [10 mg/ml, 10 mg/ml LLC, 400 mM Citrate pH 3.5, 150 mM NaCl], individual rats
[3] = ID 0.3 ml C [10 mg/ml, Captopril 0.5 mg/ml, 10 mg/ml LLC, 400 mM Citrate pH 3.5, 150 mM NaCl], individual rats
[4] = ID 0.3 ml C [10 mg/ml, Captopril 5 mg/ml, 10 mg/ml LLC, 400 mM Citrate pH 3.5, 150 mM NaCl], individual rats

- Half-Life [1]: 51 min and 140 min and 23 min and 7 min
- Angiotensin (1-7) concentration (ID 0.3 ml B [10 mg/ml, 10 mg/ml LLC, 400 mM Citrate pH 3.5, 150 mM NaCl], time point 0 min (before administration), individual rats): 1.46 ng/mL
- Angiotensin (1-7) concentration (ID 0.3 ml C [10 mg/ml, Captopril 0.5 mg/ml, 10 mg/ml LLC, 400 mM Citrate pH 3.5, 150 mM NaCl], time point 0 min (before administration), Average): 1.1 ng/mL
- Angiotensin (1-7) concentration (ID 0.3 ml C [10 mg/ml, Captopril 5 mg/ml, 10 mg/ml LLC, 400 mM Citrate pH 3.5, 150 mM NaCl], time point 0 min (before administration), Average): 2.42 ng/mL
- Total mean A(1-7) exposure over the observation period (0.3 mL of 10 mg/mL A(1-7) formulated in PBS, 6 rats): 403 ng·min/mL
- Total mean A(1-7) exposure over the observation period (0.3 mL of 10 mg/mL A(1-7) with 0.5 mg/mL captopril (as printed in the text on Table 5), 10 mg/mL LLC, 400 mM Citrate, 150 mM NaCl pH 3.5, six rats): 9,399 ng*min/mL
- Total mean A(1-7) exposure over the observation period (0.3 mL of 10 mg/mL A(1-7) with 0.5 mg/mL captopril, 10 mg/mL LLC, 400 mM Citrate, 150 mM NaCl pH 3.5, seven rats (Table 4)): 7,152 ng*min/mL
- Total mean A(1-7) exposure over the observation period (0.3 mL of 10 mg/mL A(1-7) with 10 mg/mL LLC, 400 mM Citrate, 150 mM NaCl pH 3.5): 4,274 ng*min/mL
- level at 0 h (rat, plasma, 3 mg per rat, pH 3.5, ID 0.3 ml B [10 mg/ml, 10 mg/ml LLC, 400 mM Citrate pH 3.5, 150 mM NaCl], time point 0 min (before administration), Average): 1.51 ng/mL
- level at 10 min (rat, plasma, 3 mg per rat, pH 3.5, ID 0.3 ml B [10 mg/ml, 10 mg/ml LLC, 400 mM Citrate pH 3.5, 150 mM NaCl], time point 10 min, Average): 204 ng/mL
- level at 20 min (rat, plasma, 3 mg per rat, pH 3.5, ID 0.3 ml B [10 mg/ml, 10 mg/ml LLC, 400 mM Citrate pH 3.5, 150 mM NaCl], time point 20 min, Average): 24.8 ng/mL
- level at 40 min (rat, plasma, 3 mg per rat, pH 3.5, ID 0.3 ml B [10 mg/ml, 10 mg/ml LLC, 400 mM Citrate pH 3.5, 150 mM NaCl], time point 40 min, Average): 5.11 ng/mL
- level at 1 h (rat, plasma, 3 mg per rat, pH 3.5, ID 0.3 ml B [10 mg/ml, 10 mg/ml LLC, 400 mM Citrate pH 3.5, 150 mM NaCl], time point 60 min, Average): 5.2 ng/mL
- level at 1.5 h (rat, plasma, 3 mg per rat, pH 3.5, ID 0.3 ml B [10 mg/ml, 10 mg/ml LLC, 400 mM Citrate pH 3.5, 150 mM NaCl], time point 90 min, Average): 3.6 ng/mL
- level at 0 h (rat, plasma, 3 mg, ID 0.3 ml A [10 mg/ml in PBS], time point 0 min (before administration), Average): 1.74 ng/mL
- level at 5 min (rat, plasma, 3 mg, ID 0.3 ml A [10 mg/ml in PBS], time point 5 min, Average): 4.18 ng/mL
- level at 10 min (rat, plasma, 3 mg, ID 0.3 ml A [10 mg/ml in PBS], time point 10 min, Average): 2.85 ng/mL
- level at 20 min (rat, plasma, 3 mg, ID 0.3 ml A [10 mg/ml in PBS], time point 20 min, Average): 3.58 ng/mL
- level at 40 min (rat, plasma, 3 mg, ID 0.3 ml A [10 mg/ml in PBS], time point 40 min, Average): 4.37 ng/mL
- level at 1 h (rat, plasma, 3 mg, ID 0.3 ml A [10 mg/ml in PBS], time point 60 min, Average): 5.67 ng/mL
- level at 1.5 h (rat, plasma, 3 mg, ID 0.3 ml A [10 mg/ml in PBS], time point 90 min, Average): 4.96 ng/mL
- level at 5 min (rat, plasma, 3 mg, pH 3.5, ID 0.3 ml B [10 mg/ml, 10 mg/ml LLC, 400 mM Citrate pH 3.5, 150 mM NaCl], time point 5 min, Average): 417 ng/mL
- AUC(0-t) (rat, plasma, other: intra-duodenal injection (ID), 3 mg, ID 0.3 ml A [10 mg/ml in PBS], Average (PK value of the mean concentrations), read-out: AUC0-90 (converted)): 6.73 ng·h/mL
- Cmax (rat, plasma, other: intra-duodenal injection (ID), 3 mg, ID 0.3 ml A [10 mg/ml in PBS], Average (PK value of the mean concentrations), read-out: Cmax): 5.7 ng/mL
- Half-Life (rat, plasma, other: intra-duodenal injection (ID), 3 mg, ID 0.3 ml A [10 mg/ml in PBS], Average (PK value of the mean concentrations), read-out: Half-Life): 155 min
SMILES: CC[C@H](C)[C@H](NC(=O)[C@H](Cc1ccc(O)cc1)NC(=O)[C@@H](NC(=O)[C@H](CCCNC(=N)N)NC(=O)[C@@H](N)CC(=O)O)C(C)C)C(=O)N[C@@H](Cc1c[nH]cn1)C(=O)N1CCC[C@H]1C(=O)O [Angiotensin (1-7), Asp^1-Arg^2-Val^3-Tyr^4-Ile^5-His^6-Pro^7]
- AUC0-90 [1]: 123 ng·min/mL and 881 ng·min/mL and 181 ng·min/mL and 456 ng·min/mL and 166 ng·min/mL and 616 ng·min/mL
- Cmax [1]: 3.44 ng/mL and 15 ng/mL and 4 ng/mL and 9 ng/mL and 3 ng/mL and 10.4 ng/mL
- Angiotensin (1-7) concentration (ID 0.3 ml A [10 mg/ml in PBS], time point 0 min (before administration), individual rats): 0.23 ng/mL and 0.0 ng/mL and 1.54 ng/mL and 1.00 ng/mL and 1.84 ng/mL and 5.81 ng/mL
- Angiotensin (1-7) concentration (ID 0.3 ml A [10 mg/ml in PBS], time point 5 min, individual rats): 0.84 ng/mL and 12.3 ng/mL and 0.94 ng/mL and 0.88 ng/mL and 0.891 ng/mL and 9.24 ng/mL
- Angiotensin (1-7) concentration (ID 0.3 ml A [10 mg/ml in PBS], time point 10 min, individual rats): 3.44 ng/mL and 6.38 ng/mL and 1.08 ng/mL and 0.99 ng/mL and 1.12 ng/mL and 4.08 ng/mL
- Angiotensin (1-7) concentration (ID 0.3 ml A [10 mg/ml in PBS], time point 20 min, individual rats): 0.62 ng/mL and 13.3 ng/mL and 1.91 ng/mL and 1.79 ng/mL and 1.80 ng/mL and 2.05 ng/mL
- Angiotensin (1-7) concentration (ID 0.3 ml A [10 mg/ml in PBS], time point 40 min, individual rats): 0.27 ng/mL and 15.4 ng/mL and 1.22 ng/mL and 4.14 ng/mL and 1.30 ng/mL and 3.89 ng/mL
- Angiotensin (1-7) concentration (ID 0.3 ml A [10 mg/ml in PBS], time point 60 min, individual rats): 1.55 ng/mL and 6.27 ng/mL and 3.97 ng/mL and 8.75 ng/mL and 3.07 ng/mL and 10.4 ng/mL
- Angiotensin (1-7) concentration (ID 0.3 ml A [10 mg/ml in PBS], time point 90 min, individual rats): 2.61 ng/mL and 7.19 ng/mL and 0.78 ng/mL and 7.54 ng/mL and 1.23 ng/mL and 10.4 ng/mL
- AUC0-90 [2]: 19,502.2 ng*min/mL and 1,777.5 ng*min/mL and 422.8 ng*min/mL and 1,168.2 ng*min/mL and 2,100.6 ng*min/mL and 669.9 ng*min/mL
- Cmax [2]: >1000 ng/mL and 259.0 ng/mL and 19.3 ng/mL and 89.7 ng/mL and 60.7 ng/mL and 56.4 ng/mL
- Half-Life [2]: 9.3 min and 173.3 min and 23.8 min and 25.2 min and 21.6 min and 25.0 min
- Angiotensin (1-7) concentration (ID 0.3 ml B [10 mg/ml, 10 mg/ml LLC, 400 mM Citrate pH 3.5, 150 mM NaCl], time point 5 min, individual rats): >1000 ng/mL and 259 ng/mL and 3.48 ng/mL and 89.7 ng/mL and 60.7 ng/mL and 56.38 ng/mL
- Angiotensin (1-7) concentration (ID 0.3 ml B [10 mg/ml, 10 mg/ml LLC, 400 mM Citrate pH 3.5, 150 mM NaCl], time point 10 min, individual rats): >1000 ng/mL and 21 ng/mL and 19.3 ng/mL and 15.2 ng/mL and 59.6 ng/mL and 17.92 ng/mL
- Angiotensin (1-7) concentration (ID 0.3 ml B [10 mg/ml, 10 mg/ml LLC, 400 mM Citrate pH 3.5, 150 mM NaCl], time point 20 min, individual rats): 59.9 ng/mL and 7.35 ng/mL and 6.02 ng/mL (2×) and 18.4 ng/mL and 51.2 ng/mL
- Angiotensin (1-7) concentration (ID 0.3 ml B [10 mg/ml, 10 mg/ml LLC, 400 mM Citrate pH 3.5, 150 mM NaCl], time point 40 min, individual rats): 4.88 ng/mL and 5.6 ng/mL and 2.32 ng/mL and 5.05 ng/mL and 11.7 ng/mL and 1.11 ng/mL
- Angiotensin (1-7) concentration (ID 0.3 ml B [10 mg/ml, 10 mg/ml LLC, 400 mM Citrate pH 3.5, 150 mM NaCl], time point 60 min, individual rats): 4.74 ng/mL and 1.7 ng/mL and 3.99 ng/mL and 6.36 ng/mL and 10.9 ng/mL and 3.48 ng/mL
- Angiotensin (1-7) concentration (ID 0.3 ml B [10 mg/ml, 10 mg/ml LLC, 400 mM Citrate pH 3.5, 150 mM NaCl], time point 90 min, individual rats): 3.93 ng/mL and 3.99 ng/mL and 1.11 ng/mL and 4.43 ng/mL and 4.74 ng/mL and 3.39 ng/mL
- AUC0-90 [3]: 9,257 ng*min/mL and 20,442 ng*min/mL and 7,394 ng*min/mL and 2,252 ng*min/mL (2×) and 6,495 ng*min/mL
- Cmax [3]: 879.0 ng/mL and >1000 ng/mL and 468.0 ng/mL and 83.0 ng/mL (2×) and 735.0 ng/mL
- Half-Life [3]: 11.9 min and 29.1 min and 13.9 min and 18.3 min (2×) and 17.9 min
- AUC0-90 [4]: 26,654 ng*min/mL and 1,008 ng*min/mL and 7,641 ng*min/mL and 10,668 ng*min/mL and 6,228 ng*min/mL and 3,862 ng*min/mL
- Cmax [4]: <1000 ng/mL and 33.5 ng/mL and 504 ng/mL and 746.0 ng/mL and 391.25 ng/mL and 432.85 ng/mL
- Half-Life [4]: 10.55 min and 7.97 min and 15.45 min and 11.94 min and 12.86 min and 25.62 min
- Half-life and total exposure compared to the baseline profile of angiotensin (1-7) delivered in PBS (formulation according to the invention (citrate, LLC, with or without captopril), rat model mimicking oral delivery): significantly improved half-life and total exposure
